The results in this text go back to patent US10821115B2, “Compounds that inhibit Mcl-1 protein” (priority 2017, dated 2020).

Where two headings read alike, the source gives them in different places.

Assay [1] deals with recombinant human Mcl-1 (residues 171-327) / Bim interaction (Homo sapiens (Human), UniProt Q07820). Nature of the assay: biochemical. It is filed as binding. As to conditions: read-out: Mcl-1 HTRF IC50. (In general: Time-resolved FRET reads energy transfer from a long-lived donor to a nearby acceptor.)
Chain of recombinant human Mcl-1 (residues 171-327) / Bim interaction (Q07820 171-327): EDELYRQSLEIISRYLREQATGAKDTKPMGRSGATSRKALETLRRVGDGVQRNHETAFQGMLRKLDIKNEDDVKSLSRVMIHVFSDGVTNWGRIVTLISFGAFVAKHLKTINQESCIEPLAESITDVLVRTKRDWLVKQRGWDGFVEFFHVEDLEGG
Assay [2] has as its system human multiple myeloma cell line, OPM-2. Nature of the assay: Cell viability assay (OPM-2 10 FBS), CellTiter-Glo. The assay is classed as cell-based. The method in brief:
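IC50 values come from 4-parameter logistic fits of luminescence signals reflecting cell viability. Treatment lasted 16 h at 37 °C in complete medium with 10% FBS, starting from 3000 cells/well.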

[3] abbreviates: TR-FRET, Mcl-1(171-327) / biotin-Bim (51-76).
Setting [4] is: Homo sapiens, OPM-2, 16 h, read-out: OPM-2 10% FBS IC50 IP, OPM-2 cells, 10% FBS, 16 h, CellTiter-Glo.
Where [5] appears, read: 0.1 nM Mcl-1(171-327), 0.05 nM biotin-Bim (51-76).
The mark [6] stands for this setting: Homo sapiens, OPM-2, 16 h, read-out: OPM-2 10% FBS IC50 IP, OPM-2 cells, 10% FBS, 16 h incubation.
Where [7] appears, read: read-out: OPM-2 10% FBS IC50 IP, OPM-2 cells, 10% FBS, 16 h, CellTiter-Glo.

Regarding `C[C@@H]1[C@@H](C)CCC[C@@](O)(c2nccn2C)[C@@H]2CC[C@H]2CN2C[C@@]3(CCCc4cc(Cl)ccc43)COc3ccc(cc32)C(=O)NS1(=O)=O` [Example 100226, (1S,3′R,6′R,7′S,11′S,12′R)-6-chloro-7′-hydroxy-11′,12′-dimethyl-7′-(1-methyl-1H-imidazol-2-yl)-3,4-dihydro-2H,15′H-spiro[naphthalene-1,22′-[20]oxa[13]thia[1,14]diazatetracyclo [14.7.2.0~3,6~.0~19,24~]pentacosa[16,18,24]trien]-15′-one 13′,13′-dioxide], the IC50 (usually the concentration needed to halve the response being measured) in assay [1] (setting [3]) was found to be 1.4 nM; in assay [2] (setting [4]) it was 849 nM.
`CO[C@]1(CN2CCN3CCOC[C@@H]3C2)/C=C/C[C@H](C)[C@@H](CC2CCC2)S(=O)(=O)NC(=O)c2ccc3c(c2)N(C[C@@H]2CC[C@H]21)C[C@@]1(CCCc2cc(Cl)ccc21)CO3` [Example 38]: the IC50 was found to be 0.342 nM in assay [1] (setting [5]) and 489 nM in assay [2] (setting [6]).
For the compound `C[C@@H]1[C@@H](C)C/C=C/[C@](O)(C2CC2)[C@@H]2CC[C@H]2CN2C[C@@]3(CCCc4cc(Cl)ccc43)COc3ccc(cc32)C(=O)NS1(=O)=O` [Example 100213, (1S,3′R,6′R,7′R,8′E,11′S,12′R)-6-chloro-7′-cyclopropyl-7′-hydroxy-11′,12′-dimethyl-3,4-dihydro-2H,15′H-spiro[naphthalene-1,22′-[20]oxa[13]thia[1,14]diazatetracyclo [14.7.2.0~3,6~.0~19,24~]pentacosa[8,16,18,24]tetraen]-15′-one 13′,13′-dioxide], the IC50 in assay [1] (setting [3]) amounted to 2.84 nM; in assay [2] (setting [4]), 2020 nM.
On the same counts, the results for `CO[C@@]1(CC2=NCC(=O)O2)/C=C/C[C@H](C)[C@@H](C)S(=O)(=O)NC(=O)c2ccc3c(c2)N(C[C@@H]2CC[C@H]21)C[C@@]1(CCCc2cc(Cl)ccc21)CO3` [Example 100549, (1S,3′R,6′R,7′S,8′E,11′S,12′R)-6-chloro-7′-methoxy-11′,12′-dimethyl-7′-((5-oxo-4,5-dihydro-1,3-oxazol-2-yl)methyl)-3,4-dihydro-2H,15′H-spiro[naphthalene-1,22′-[20]oxa[13]thia[1,14]diazatetracyclo [14.7.2.0~3,6~.0~19,24~]pentacosa[8,16,18,24]tetraen]-15′-one 13′,13′-dioxide] are 2.57 nM and 545 nM.
On to `CCOCCN1CCN(C[C@]2(OC)/C=C/C[C@H](C)[C@@H](C)S(=O)(=O)NC(=O)c3ccc4c(c3)N(C[C@@H]3CC[C@H]32)C[C@@]2(CCCc3cc(Cl)ccc32)CO4)CC1` [Example 303, (1S,3′R,6′R,7′S,8′E,11′S,12′R)-6-chloro-7′-((4-(2-ethoxyethyl)-1-piperazinyl)methyl)-7′-methoxy-11′,12′-dimethyl-3,4-dihydro-2H,15′H-spiro[naphthalene-1,22′-[20]oxa[13]thia[1,14]diazatetracyclo [14.7.2.0~3,6~.0~19,24~]pentacosa[8,16,18,24]tetraen]-15′-one 13′,13′-dioxide], for which the results for the IC50 in assay [1] (setting [5]) and in assay [2] (setting [6]) were 0.15 nM and 101 nM, respectively.
As to `C[C@@H]1[C@@H](C)C/C=C/[C@@](O)(C#CCN2CCS(=O)(=O)CC2)[C@@H]2CC[C@H]2CN2C[C@@]3(CCCc4cc(Cl)ccc43)COc3ccc(cc32)C(=O)NS1(=O)=O` [Example 100388, (1S,3′R,6′R,7′S,8′E,11′S,12′R)-6-chloro-7′-(3-(1,1-dioxido-4-thiomorpholinyl)-1-propyn-1-yl)-7′-hydroxy-11′,12′-dimethyl-3,4-dihydro-2H,15′H-spiro[naphthalene-1,22′-[20]oxa[13]thia[1,14]diazatetracyclo [14.7.2.0~3,6~.0~19,24~]pentacosa[8,16,18,24]tetraen]-15′-one 13′,13′-dioxide], the IC50 in assay [1] (setting [3]) was 1.17 nM; in assay [2] (setting [7]) it was 2160 nM.
As to `CO[C@@]1(CC2=NC(C)(C)C(=O)O2)/C=C/C[C@H](C)[C@@H](C)S(=O)(=O)NC(=O)c2ccc3c(c2)N(C[C@@H]2CC[C@H]21)C[C@@]1(CCCc2cc(Cl)ccc21)CO3` [Example 100547, (1S,3′R,6′R,7′S,8′E,11′S,12′R)-6-chloro-7′-((4,4-dimethyl-5-oxo-4,5-dihydro-1,3-oxazol-2-yl)methyl)-7′-methoxy-11′,12′-dimethyl-3,4-dihydro-2H,15′H-spiro[naphthalene-1,22′-[20]oxa[13]thia[1,14]diazatetracyclo [14.7.2.0~3,6~.0~19,24~]pentacosa[8,16,18,24]tetraen]-15′-one 13′,13′-dioxide], the results for the IC50 in assay [1] (setting [3]) and in assay [2] (setting [4]) were 0.031 nM and 1860 nM, respectively.
`CO[C@]1(CN2CCN3C[C@H](C)OC[C@@H]3C2)/C=C/C[C@H](C)[C@@H](C)S(=O)(=O)NC(=O)c2ccc3c(c2)N(C[C@@H]2CC[C@H]21)C[C@@]1(CCCc2cc(Cl)ccc21)CO3` [Example 146, (1S,3′R,6′R,7′R,8′E,11′S,12′R)-6-chloro-7′-methoxy-11′,12′-dimethyl-7′-(((3S,9aS)-3-methylhexahydropyrazino[2,1-c][1,4]oxazin-8(1H)-yl)methyl)-3,4-dihydro-2H,15′H-spiro[naphthalene-1,22′-[20]oxa[13]thia[1,14]diazatetracyclo [14.7.2.0~3,6~.0~19,24~]pentacosa[8,16,18,24]tetraen]-15′-one 13′,13′-dioxide]: the IC50 was 0.337 nM in assay [1] (setting [5]) and 150 nM in assay [2] (setting [6]).
As for `C[C@@H]1[C@@H](C)CCC[C@@](O)(CS(=O)(=O)N(C)C(C)(C)C)[C@@H]2CC[C@H]2CN2C[C@@]3(CCCc4cc(Cl)ccc43)COc3ccc(cc32)C(=O)NS1(=O)=O` [Example 100170, 1-((1S,3′R,6′R,7′S,11′S,12′R)-6-chloro-7′-hydroxy-11′,12′-dimethyl-13′,13′-dioxido-15′-oxo-3,4-dihydro-2H-spiro[naphthalene-1,22′-[20]oxa[13]thia[1,14]diazatetracyclo [14.7.2.0~3,6~.0~19,24~]pentacosa[16,18,24]trien]-7′-yl)-N-methyl-N-(2-methyl-2-propanyl)methanesulfonamide], the values for the IC50 in assay [1] (setting [3]) and in assay [2] (setting [7]) were 12.1 nM and 7820 nM, respectively.
`C[C@@H]1[C@@H](C)CCC[C@](O)([C@@H](C)C(=O)N(C)C)[C@@H]2CC[C@H]2CN2C[C@@]3(CCCc4cc(Cl)ccc43)COc3ccc(cc32)C(=O)NS1(=O)=O` (single isomer, unassigned) [Example 100117]: the IC50 is 2.4 nM in assay [1] (setting [3]) and 3170 nM in assay [2] (setting [7]).
As to `CO[C@]1(CN2CC(=O)N3CCCC[C@@H]3C2)/C=C/C[C@H](C)[C@@H](C)S(=O)(=O)NC(=O)c2ccc3c(c2)N(C[C@@H]2CC[C@H]21)C[C@@]1(CCCc2cc(Cl)ccc21)CO3` [Example 149], the figures for the IC50 in assay [1] (setting [5]) and in assay [2] (setting [6]) were 0.128 nM and 119 nM, respectively.
As to `C[C@@H]1[C@@H](C)C/C=C/[C@](O)(c2nccn2C)[C@@H]2CC[C@H]2CN2C[C@@]3(CCCc4cc(Cl)ccc43)COc3ccc(cc32)C(=O)NS1(=O)=O` [Example 100186, (1S,3′R,6′R,7′R,8′E,11′S,12′R)-6-chloro-7′-hydroxy-11′,12′-dimethyl-7′-(1-methyl-1H-imidazol-2-yl)-3,4-dihydro-2H,15′H-spiro[naphthalene-1,22′-[20]oxa[13]thia[1,14]diazatetracyclo [14.7.2.0~3,6~.0~19,24~]pentacosa[8,16,18,24]tetraen]-15′-one 13′,13′-dioxide], the half-maximal inhibitory concentration (IC50) in assay [1] (setting [3]) was 0.377 nM; in assay [2] (setting [4]), 312 nM.
On the same counts, the results for `C[C@@H]1[C@@H](C)CCC[C@@](O)(CC(=O)N2CCCC2)[C@@H]2CC[C@H]2CN2C[C@@]3(CCCc4cc(Cl)ccc43)COc3ccc(cc32)C(=O)NS1(=O)=O` [Example 100107, (1S,3′R,6′R,7′R,11′S,12′R)-6-chloro-7′-hydroxy-11′,12′-dimethyl-7′-(2-oxo-2-(1-pyrrolidinyl)ethyl)-3,4-dihydro-2H,15′H-spiro[naphthalene-1,22′-[20]oxa[13]thia[1,14]diazatetracyclo [14.7.2.0~3,6~.0~19,24~]pentacosa[16,18,24]trien]-15′-one 13′,13′-dioxide] are 0.296 nM and 181 nM.
On to `C[C@@H]1[C@@H](C)CCC[C@@](O)(Cc2nccn2C)[C@@H]2CC[C@H]2CN2C[C@@]3(CCCc4cc(Cl)ccc43)COc3ccc(cc32)C(=O)NS1(=O)=O` [Example 100162, (1S,3′R,6′R,7′R,11′S,12′R)-6-chloro-7′-hydroxy-11′,12′-dimethyl-7′-((1-methyl-1H-imidazol-2-yl)methyl)-3,4-dihydro-2H,15′H-spiro[naphthalene-1,22′-[20]oxa[13]thia[1,14]diazatetracyclo [14.7.2.0~3,6~.0~19,24~]pentacosa[16,18,24]trien]-15′-one 13′,13′-dioxide], for which the IC50 came to 3.47 nM in assay [1] (setting [3]) and 2870 nM in assay [2] (setting [7]).
Consider `C[C@@H]1[C@@H](C)C/C=C/[C@]2(CN(Cc3ccncc3)CCO2)[C@@H]2CC[C@H]2CN2C[C@@]3(CCCc4cc(Cl)ccc43)COc3ccc(cc32)C(=O)NS1(=O)=O` [Example 136, (1S,3′R,6′R,7′R,8′E,11′S,12′R)-6-chloro-11′,12′-dimethyl-4″- (4-pyridinylmethyl)-3,4-dihydro-2H,15′H-dispiro[naphthalene-1,22′-[20]oxa[13]thia[1,14]diazatetracyclo [14.7.2.0~3,6~.0~19,24~]pentacosa[8,16,18,24]tetraene-7′,2″-[1,4]oxazinan]-15′-one 13′,13′-dioxide], for which the values for the half-inhibitory concentration (IC50) in assay [1] (setting [5]) and in assay [2] (setting [6]) were 4.7 nM and 1020 nM, respectively.
